Numbers after ± are expanded uncertainties.
Assay: mn = molality of the nth substance listed, in mol/kg
Settings: 100 kPa, Liquid; for viscosity: Capillary tube (Ostwald / Ubbelohde) method; for electrical conductivity: Direct current cell with electrodes; for mass density: Vibrating tube method

CCCCn1cc[n+](C)c1.O=C([O-])c1ccccc1O [1-butyl-3-methylimidazolium salicylate] + O
Settings | electrical conductivity [S/m] | mass density [kg/m3] | viscosity [mPa·s]
293.15 K, m1 = 0.001 | 0.007 ± 0.0012 | – | –
293.15 K, m1 = 0.0037 | 0.0231 ± 0.0013 | – | –
293.15 K, m1 = 0.00579 | – | 998.44 ± 1.6 | –
293.15 K, m1 = 0.0058 | – | – | 1.031 ± 0.021
293.15 K, m1 = 0.0062 | 0.0356 ± 0.0014 | – | –
293.15 K, m1 = 0.007 | – | 998.49 ± 1.6 | –
293.15 K, m1 = 0.0071 | – | – | 1.035 ± 0.022
293.15 K, m1 = 0.0072 | 0.0399 ± 0.0015 | – | –
293.15 K, m1 = 0.008 | 0.0439 ± 0.0016 | – | –
293.15 K, m1 = 0.00801 | – | 998.53 ± 1.6 | –
293.15 K, m1 = 0.01 | 0.0517 ± 0.0017 | – | –
293.15 K, m1 = 0.01056 | – | 998.64 ± 1.6 | –
293.15 K, m1 = 0.0117 | – | – | 1.046 ± 0.022
293.15 K, m1 = 0.01278 | – | 998.73 ± 1.6 | –
293.15 K, m1 = 0.0144 | 0.0674 ± 0.0021 | – | –
293.15 K, m1 = 0.0158 | – | 998.86 ± 1.6 | –
293.15 K, m1 = 0.01707 | – | 998.92 ± 1.6 | –
293.15 K, m1 = 0.0205 | – | – | 1.065 ± 0.022
293.15 K, m1 = 0.02056 | – | 999.07 ± 1.6 | –
293.15 K, m1 = 0.0221 | 0.0901 ± 0.0028 | – | –
293.15 K, m1 = 0.02523 | – | 999.27 ± 1.6 | –
293.15 K, m1 = 0.0353 | – | – | 1.091 ± 0.023
293.15 K, m1 = 0.0384 | – | – | 1.096 ± 0.023
293.15 K, m1 = 0.0552 | – | – | 1.123 ± 0.023
293.15 K, m1 = 0.0765 | – | – | 1.155 ± 0.024
298.15 K, m1 = 0.001 | 0.0079 ± 0.0014 | – | –
298.15 K, m1 = 0.0037 | 0.0262 ± 0.0015 | – | –
298.15 K, m1 = 0.00579 | – | 997.28 ± 1.6 | –
298.15 K, m1 = 0.0058 | – | – | 0.925 ± 0.019
298.15 K, m1 = 0.0062 | 0.0404 ± 0.0016 | – | –
298.15 K, m1 = 0.007 | – | 997.33 ± 1.6 | –
298.15 K, m1 = 0.0071 | – | – | 0.93 ± 0.019
298.15 K, m1 = 0.0072 | 0.0452 ± 0.0017 | – | –
298.15 K, m1 = 0.008 | 0.0498 ± 0.0018 | – | –
298.15 K, m1 = 0.00801 | – | 997.37 ± 1.6 | –
298.15 K, m1 = 0.01 | 0.0588 ± 0.002 | – | –
298.15 K, m1 = 0.01056 | – | 997.48 ± 1.6 | –
298.15 K, m1 = 0.0117 | – | – | 0.943 ± 0.02
298.15 K, m1 = 0.01278 | – | 997.57 ± 1.6 | –
298.15 K, m1 = 0.0144 | 0.0771 ± 0.0024 | – | –
298.15 K, m1 = 0.0158 | – | 997.7 ± 1.6 | –
298.15 K, m1 = 0.01707 | – | 997.75 ± 1.6 | –
298.15 K, m1 = 0.0205 | – | – | 0.964 ± 0.02
298.15 K, m1 = 0.02056 | – | 997.9 ± 1.6 | –
298.15 K, m1 = 0.0221 | 0.103 ± 0.0032 | – | –
298.15 K, m1 = 0.02523 | – | 998.11 ± 1.6 | –
298.15 K, m1 = 0.0353 | – | – | 0.993 ± 0.021
298.15 K, m1 = 0.0384 | – | – | 0.998 ± 0.021
298.15 K, m1 = 0.0552 | – | – | 1.026 ± 0.021
298.15 K, m1 = 0.0765 | – | – | 1.058 ± 0.022
303.15 K, m1 = 0.001 | 0.0089 ± 0.0016 | – | –
303.15 K, m1 = 0.0037 | 0.0297 ± 0.0017 | – | –
303.15 K, m1 = 0.00579 | – | 995.88 ± 1.6 | –
303.15 K, m1 = 0.0058 | – | – | 0.838 ± 0.017
303.15 K, m1 = 0.0062 | 0.0454 ± 0.0018 | – | –
303.15 K, m1 = 0.007 | – | 995.93 ± 1.6 | –
303.15 K, m1 = 0.0071 | – | – | 0.842 ± 0.018
303.15 K, m1 = 0.0072 | 0.0507 ± 0.0019 | – | –
303.15 K, m1 = 0.008 | 0.0559 ± 0.002 | – | –
303.15 K, m1 = 0.00801 | – | 995.97 ± 1.6 | –
303.15 K, m1 = 0.01 | 0.0659 ± 0.0022 | – | –
303.15 K, m1 = 0.01056 | – | 996.07 ± 1.6 | –
303.15 K, m1 = 0.0117 | – | – | 0.857 ± 0.018
303.15 K, m1 = 0.01278 | – | 996.17 ± 1.6 | –
303.15 K, m1 = 0.0144 | 0.0871 ± 0.0027 | – | –
303.15 K, m1 = 0.0158 | – | 996.29 ± 1.6 | –
303.15 K, m1 = 0.01707 | – | 996.35 ± 1.6 | –
303.15 K, m1 = 0.0205 | – | – | 0.879 ± 0.018
303.15 K, m1 = 0.02056 | – | 996.5 ± 1.6 | –
303.15 K, m1 = 0.0221 | 0.118 ± 0.0036 | – | –
303.15 K, m1 = 0.02523 | – | 996.7 ± 1.6 | –
303.15 K, m1 = 0.0353 | – | – | 0.911 ± 0.019
303.15 K, m1 = 0.0384 | – | – | 0.917 ± 0.019
303.15 K, m1 = 0.0552 | – | – | 0.945 ± 0.02
303.15 K, m1 = 0.0765 | – | – | 0.979 ± 0.02
308.15 K, m1 = 0.001 | 0.0099 ± 0.0017 | – | –
308.15 K, m1 = 0.0037 | 0.0328 ± 0.0018 | – | –
308.15 K, m1 = 0.00579 | – | 994.27 ± 1.6 | –
308.15 K, m1 = 0.0058 | – | – | 0.765 ± 0.016
308.15 K, m1 = 0.0062 | 0.0501 ± 0.002 | – | –
308.15 K, m1 = 0.007 | – | 994.32 ± 1.6 | –
308.15 K, m1 = 0.0071 | – | – | 0.77 ± 0.016
308.15 K, m1 = 0.0072 | 0.057 ± 0.0022 | – | –
308.15 K, m1 = 0.008 | 0.0623 ± 0.0022 | – | –
308.15 K, m1 = 0.00801 | – | 994.36 ± 1.6 | –
308.15 K, m1 = 0.01 | 0.0745 ± 0.0025 | – | –
308.15 K, m1 = 0.01056 | – | 994.46 ± 1.6 | –
308.15 K, m1 = 0.0117 | – | – | 0.787 ± 0.016
308.15 K, m1 = 0.01278 | – | 994.55 ± 1.6 | –
308.15 K, m1 = 0.0144 | 0.0986 ± 0.0031 | – | –
308.15 K, m1 = 0.0158 | – | 994.68 ± 1.6 | –
308.15 K, m1 = 0.01707 | – | 994.74 ± 1.6 | –
308.15 K, m1 = 0.0205 | – | – | 0.811 ± 0.017
308.15 K, m1 = 0.02056 | – | 994.89 ± 1.6 | –
308.15 K, m1 = 0.0221 | 0.133 ± 0.0041 | – | –
308.15 K, m1 = 0.02523 | – | 995.09 ± 1.6 | –
308.15 K, m1 = 0.0353 | – | – | 0.845 ± 0.018
308.15 K, m1 = 0.0384 | – | – | 0.851 ± 0.018
308.15 K, m1 = 0.0552 | – | – | 0.882 ± 0.018
308.15 K, m1 = 0.0765 | – | – | 0.916 ± 0.019
313.15 K, m1 = 0.001 | 0.011 ± 0.0019 | – | –
313.15 K, m1 = 0.0037 | 0.0362 ± 0.002 | – | –
313.15 K, m1 = 0.00579 | – | 992.45 ± 1.6 | –
313.15 K, m1 = 0.0058 | – | – | 0.701 ± 0.015
313.15 K, m1 = 0.0062 | 0.0551 ± 0.0022 | – | –
313.15 K, m1 = 0.007 | – | 992.5 ± 1.6 | –
313.15 K, m1 = 0.0071 | – | – | 0.707 ± 0.015
313.15 K, m1 = 0.0072 | 0.0629 ± 0.0024 | – | –
313.15 K, m1 = 0.008 | 0.0686 ± 0.0025 | – | –
313.15 K, m1 = 0.00801 | – | 992.54 ± 1.6 | –
313.15 K, m1 = 0.01 | 0.0826 ± 0.0028 | – | –
313.15 K, m1 = 0.01056 | – | 992.64 ± 1.6 | –
313.15 K, m1 = 0.0117 | – | – | 0.723 ± 0.015
313.15 K, m1 = 0.01278 | – | 992.73 ± 1.6 | –
313.15 K, m1 = 0.0144 | 0.111 ± 0.0035 | – | –
313.15 K, m1 = 0.0158 | – | 992.86 ± 1.6 | –
313.15 K, m1 = 0.01707 | – | 992.91 ± 1.6 | –
313.15 K, m1 = 0.0205 | – | – | 0.749 ± 0.016
313.15 K, m1 = 0.02056 | – | 993.06 ± 1.6 | –
313.15 K, m1 = 0.0221 | 0.149 ± 0.0046 | – | –
313.15 K, m1 = 0.02523 | – | 993.26 ± 1.6 | –
313.15 K, m1 = 0.0353 | – | – | 0.783 ± 0.016
313.15 K, m1 = 0.0384 | – | – | 0.789 ± 0.016
313.15 K, m1 = 0.0552 | – | – | 0.819 ± 0.017
313.15 K, m1 = 0.0765 | – | – | 0.853 ± 0.018

Reference: the NIST ThermoML archive (doi:10.1016/j.jct.2015.10.001)
